Earlier results on 1 compound are cited in patent US10004803B2, “Low, immune enhancing, dose mtor inhibitors and uses thereof” (Novartis AG, priority 2013, dated 2018).

The target of one data set is mTOR (Homo sapiens, UniProt P42345). As to conditions: low concentration; Serra et al., 2008; cited from earlier work.
The next data set deals with PI3K/mTOR. As to conditions: relatively higher concentrations; Serra et al., 2008; cited from earlier work.

Consider `Cn1c(=O)n(-c2ccc(C(C)(C)C#N)cc2)c2c3cc(-c4cnc5ccccc5c4)ccc3ncc21` [BEZ235, 2-methyl-2-[4-(3-methyl-2-oxo-8-quinolin-3-yl-2,3-dihydro-imidazo[4,5-c]quinolin-1-yl)-phenyl]-propionitrile], for which the “concentration at which mTOR inhibition predominates” value on mTOR is “less than 100 nmol/L”. Also, the “concentration giving dual PI3K/mTOR inhibition” value in the data set with PI3K/mTOR was “approximately 500 nmol/L”.
